Experimental data published in patent publication US20220177834A1, “STABLE SYSTEM FOR THE IN VITRO CULTURE OF CEREBELLAR GRANULE CELL PRECURSORS (GCP), STABLE METHOD FOR THE IN VITRO CULTURE OF SAID CELLS AND USE OF SAID SYSTEM OR METHOD FOR IN VITRO CULTURE” (UNIVERSITA DEGLI STUDI Dl ROMA "LA SAPIENZA", priority 2019, published 2022).
“Also recorded” adds a separate entry of the source.

Key:
GCP cells = assay: Clonogenicity / long-term propagation of GCP neurosphere cultures; format: cell-based, mouse
Method: (§1) After surgical resection from a mouse on the seventh day of postnatal life (P7) the cerebellum was mechanically shredded in a buffer containing HBSS, glucose and antibiotics, and DNase (at concentrations as defined above) and the individual cells thus obtained were counted and plated at a dilution of 16000 cells/cm^2 on a medium composed of DMEM-F12, glucose, Vitamin A-free B27, insulin, NALC, heparin, antibiotics (at concentrations as defined above) and SAG (200 nM) and EGF ([…]). On this medium the cells can be enriched and maintained for an unlimited time, after periodical dissociation of the spheres with Accutase® (2-3 times per week) and propagation by dilution (to prevent excessive growth and consequent death from nutrient deficiency and hypoxia). The reaction conditions were as described above.

Shh pathway = Shh pathway expression (Gli1, N-Myc; Western Blot, real time Q-PCR) in GCP neurosphere cultures; format: cell-based, mouse; settings: Western Blot, neurospheres under different culture conditions; SAG 200 nM, EGF 1 μM
Method: as §1

CNC1CCC(N(Cc2cccc(-c3ccncc3)c2)C(=O)c2sc3ccccc3c2Cl)CC1 (stereo not drawn) [SAG]
long-term survival of the culture (GCP cells; factor alone): does not ensure long-term survival of the culture | clonogenic power (average spheres) over time (GCP cells; several weeks after being grown): undergoes progressive decline | expression of molecular biomarkers of the Shh pathway, Gli1 and N-Myc (Shh pathway): active; also recorded: maintains a high expression of the Shh pathway
